Tested on: 945468-187-T-J3-PDC spheroids with HUVEC/MSC, viability
Assay: Anticancer human tumor 945468-187-T-J3-PDC patient-derived rectal carcinoma cell line growth inhibition [PI3K]
Conditions: for IC50: curve of first compound; for viability, T/C: stronger effect = lower value
Method in brief: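 Targeted small molecules plus PI3K inhibitors, half-log dose series from Cmax (default top 10 microM), were applied to heterotypic spheroids of cancer cells with HUVEC and MSCs. Viability indicated growth inhibition.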

[1] = second compound 0.0316 µM, first compound 0.0316 µM
[2] = second compound 0.0316 µM, first compound 0.1 µM
[3] = second compound 0.0316 µM, first compound 0.316 µM
[4] = second compound 0.0316 µM, first compound 1 µM
[5] = second compound 0.0316 µM, first compound 3.16 µM
[6] = second compound 0.0316 µM, first compound 10 µM
[7] = second compound 0.1 µM, first compound 0.0316 µM
[8] = second compound 0.1 µM, first compound 0.1 µM
[9] = second compound 0.1 µM, first compound 0.316 µM
[10] = second compound 0.1 µM, first compound 1 µM
[11] = second compound 0.1 µM, first compound 3.16 µM
[12] = second compound 0.1 µM, first compound 10 µM
[13] = second compound 0.316 µM, first compound 0.0316 µM
[14] = second compound 0.316 µM, first compound 0.1 µM
[15] = second compound 0.316 µM, first compound 0.316 µM
[16] = second compound 0.316 µM, first compound 1 µM
[17] = second compound 0.316 µM, first compound 3.16 µM
[18] = second compound 0.316 µM, first compound 10 µM
[19] = second compound 1 µM, first compound 0.0316 µM
[20] = second compound 1 µM, first compound 0.1 µM
[21] = second compound 1 µM, first compound 0.316 µM
[22] = second compound 1 µM, first compound 1 µM
[23] = second compound 1 µM, first compound 3.16 µM
[24] = second compound 1 µM, first compound 10 µM
[25] = second compound 3.16 µM, first compound 0.0316 µM
[26] = second compound 3.16 µM, first compound 0.1 µM
[27] = second compound 3.16 µM, first compound 0.316 µM
[28] = second compound 3.16 µM, first compound 1 µM
[29] = second compound 3.16 µM, first compound 3.16 µM
[30] = second compound 3.16 µM, first compound 10 µM
[31] = second compound 10 µM, first compound 0.0316 µM
[32] = second compound 10 µM, first compound 0.1 µM
[33] = second compound 10 µM, first compound 0.316 µM
[34] = second compound 10 µM, first compound 1 µM
[35] = second compound 10 µM, first compound 3.16 µM
[36] = second compound 10 µM, first compound 10 µM
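Also: spheroids exposed to agents for 7 days before viability read.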
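For viability, T/C in this document: 100% = DMSO vehicle control viability.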

CC1(C)CCC(Nc2ncc(C(F)(F)F)c(-c3c[nH]c4c(P(C)(C)=O)c(C#N)ccc34)n2)CN1 (stereo not drawn) + Cc1nc(NC(=O)N2CCCC2C(N)=O)sc1-c1ccnc(C(C)(C)C(F)(F)F)c1
IC50 (second compound 0.0316 µM): 5650 nM | IC50 (second compound 0.1 µM): 5410 nM | IC50 (second compound 0.316 µM): 5060 nM | IC50 (second compound 1 µM): 4440 nM | IC50 (second compound 3.16 µM): 1900 nM | IC50 (second compound 10 µM): 841 nM | viability, T/C [1]: 81.7% | viability, T/C [2]: 84.6% | viability, T/C [3]: 72.8% | viability, T/C [4]: 85.5% | viability, T/C [5]: 101% | viability, T/C [6]: 15.4% | viability, T/C [7]: 91.4% | viability, T/C [8]: 75.8% | viability, T/C [9]: 79% | viability, T/C [10]: 79.9% | viability, T/C [11]: 84.4% | viability, T/C [12]: 13.2% | viability, T/C [13]: 82.5% | viability, T/C [14]: 75.5% | viability, T/C [15]: 65.4% | viability, T/C [16]: 75.9% | viability, T/C [17]: 85% | viability, T/C [18]: 11.2% | viability, T/C [19]: 107% | viability, T/C [20]: 76.7% | viability, T/C [21]: 72.2% | viability, T/C [22]: 86.7% | viability, T/C [23]: 68% | viability, T/C [24]: 7.36% | viability, T/C [25]: 78.5% | viability, T/C [26]: 72.2% | viability, T/C [27]: 75.5% | viability, T/C [28]: 54.8% | viability, T/C [29]: 44.5% | viability, T/C [30]: 5.2% | viability, T/C [31]: 65.1% | viability, T/C [32]: 60% | viability, T/C [33]: 50.6% | viability, T/C [34]: 44.5% | viability, T/C [35]: 40.2% | viability, T/C [36]: 2.06%

CC(Cn1ccc(-c2ccc(C#N)c(Cl)c2)n1)NC(=O)c1cc(C(C)O)[nH]n1 (stereo not drawn) + Cc1nc(NC(=O)N2CCCC2C(N)=O)sc1-c1ccnc(C(C)(C)C(F)(F)F)c1
IC50 (second compound 0.0316 µM): > 10000 nM | IC50 (second compound 0.1 µM): > 10000 nM | IC50 (second compound 0.316 µM): > 10000 nM | IC50 (second compound 1 µM): > 10000 nM | IC50 (second compound 3.16 µM): > 10000 nM | IC50 (second compound 10 µM): > 10000 nM | viability, T/C [1]: 99.7% | viability, T/C [2]: 104% | viability, T/C [3]: 90.9% | viability, T/C [4]: 93.4% | viability, T/C [5]: 102% | viability, T/C [6]: 92.7% | viability, T/C [7]: 106% | viability, T/C [8]: 101% | viability, T/C [9]: 91.9% | viability, T/C [10]: 109% | viability, T/C [11]: 106% | viability, T/C [12]: 96.9% | viability, T/C [13]: 95.6% | viability, T/C [14]: 102% | viability, T/C [15]: 93.8% | viability, T/C [16]: 108% | viability, T/C [17]: 98.8% | viability, T/C [18]: 88.1% | viability, T/C [19]: 112% | viability, T/C [20]: 109% | viability, T/C [21]: 98.1% | viability, T/C [22]: 112% | viability, T/C [23]: 100% | viability, T/C [24]: 98.8% | viability, T/C [25]: 104% | viability, T/C [26]: 102% | viability, T/C [27]: 92.5% | viability, T/C [28]: 91.7% | viability, T/C [29]: 101% | viability, T/C [30]: 104% | viability, T/C [31]: 65.3% | viability, T/C [32]: 58.1% | viability, T/C [33]: 53.7% | viability, T/C [34]: 60.2% | viability, T/C [35]: 54.4% | viability, T/C [36]: 63%

Cn1ncc(Cl)c1-c1cc(C(=O)NC(CN)Cc2cccc(F)c2)sc1Cl (stereo not drawn) + CC(Nc1ncnc2nc[nH]c12)c1cc2cccc(Cl)c2c(=O)n1-c1ccccc1
IC50 (second compound 0.0316 µM): 1720 nM | IC50 (second compound 0.1 µM): 2390 nM | IC50 (second compound 0.316 µM): 1970 nM | IC50 (second compound 1 µM): 1340 nM | IC50 (second compound 3.16 µM): 1730 nM | IC50 (second compound 10 µM): 1140 nM | viability, T/C [1]: 101% | viability, T/C [2]: 96% | viability, T/C [3]: 99.9% | viability, T/C [4]: 59.3% | viability, T/C [5]: 44.9% | viability, T/C [6]: 33.5% | viability, T/C [7]: 94.9% | viability, T/C [8]: 104% | viability, T/C [9]: 88.2% | viability, T/C [10]: 60.5% | viability, T/C [11]: 51.5% | viability, T/C [12]: 38.2% | viability, T/C [13]: 106% | viability, T/C [14]: 97.3% | viability, T/C [15]: 87.3% | viability, T/C [16]: 62.1% | viability, T/C [17]: 41.2% | viability, T/C [18]: 28.6% | viability, T/C [19]: 112% | viability, T/C [20]: 89.5% | viability, T/C [21]: 86.2% | viability, T/C [22]: 48.6% | viability, T/C [23]: 39% | viability, T/C [24]: 28.5% | viability, T/C [25]: 107% | viability, T/C [26]: 97.7% | viability, T/C [27]: 86.5% | viability, T/C [28]: 57.6% | viability, T/C [29]: 40.7% | viability, T/C [30]: 24.6% | viability, T/C [31]: 107% | viability, T/C [32]: 75.9% | viability, T/C [33]: 84.2% | viability, T/C [34]: 44.5% | viability, T/C [35]: 35% | viability, T/C [36]: 20.1%

CC(C)n1nc(-c2ccc3oc(N)nc3c2)c2c(N)ncnc21 + CC(Nc1ccc2c(c1)OCCn1cc(N3C(=O)OCC3C(F)F)nc1-2)C(N)=O
IC50 (second compound 0.00316 µM): > 100 nM | IC50 (second compound 0.01 µM): > 100 nM | IC50 (second compound 0.0316 µM): 93.1 nM | IC50 (second compound 0.1 µM): 73.8 nM | IC50 (second compound 0.316 µM): 27.4 nM | IC50 (second compound 1 µM): 5.19 nM | viability, T/C (second compound 0.00316 µM, first compound 0.000316 µM): 111% | viability, T/C (second compound 0.00316 µM, first compound 0.001 µM): 104% | viability, T/C (second compound 0.00316 µM, first compound 0.00316 µM): 109% | viability, T/C (second compound 0.00316 µM, first compound 0.01 µM): 116% | viability, T/C (second compound 0.00316 µM, first compound 0.0316 µM): 118% | viability, T/C (second compound 0.00316 µM, first compound 0.1 µM): 71% | viability, T/C (second compound 0.01 µM, first compound 0.000316 µM): 102% | viability, T/C (second compound 0.01 µM, first compound 0.001 µM): 105% | viability, T/C (second compound 0.01 µM, first compound 0.00316 µM): 98.1% | viability, T/C (second compound 0.01 µM, first compound 0.01 µM): 111% | viability, T/C (second compound 0.01 µM, first compound 0.0316 µM): 123% | viability, T/C (second compound 0.01 µM, first compound 0.1 µM): 63.4% | viability, T/C (second compound 0.0316 µM, first compound 0.000316 µM): 99.1% | viability, T/C (second compound 0.0316 µM, first compound 0.001 µM): 94.5% | viability, T/C (second compound 0.0316 µM, first compound 0.00316 µM): 129% | viability, T/C (second compound 0.0316 µM, first compound 0.01 µM): 110% | viability, T/C [1]: 114% | viability, T/C [2]: 46% | viability, T/C (second compound 0.1 µM, first compound 0.000316 µM): 102% | viability, T/C (second compound 0.1 µM, first compound 0.001 µM): 107% | viability, T/C (second compound 0.1 µM, first compound 0.00316 µM): 104% | viability, T/C (second compound 0.1 µM, first compound 0.01 µM): 126% | viability, T/C [7]: 87.2% | viability, T/C [8]: 36.7% | viability, T/C (second compound 0.316 µM, first compound 0.000316 µM): 103% | viability, T/C (second compound 0.316 µM, first compound 0.001 µM): 104% | viability, T/C (second compound 0.316 µM, first compound 0.00316 µM): 91% | viability, T/C (second compound 0.316 µM, first compound 0.01 µM): 77.8% | viability, T/C [13]: 45.2% | viability, T/C [14]: 24.9% | viability, T/C (second compound 1 µM, first compound 0.000316 µM): 65.7% | viability, T/C (second compound 1 µM, first compound 0.001 µM): 64.9% | viability, T/C (second compound 1 µM, first compound 0.00316 µM): 60.3% | viability, T/C (second compound 1 µM, first compound 0.01 µM): 36.3% | viability, T/C [19]: 34.9% | viability, T/C [20]: 29.8%
